# According to paper PMC8205226, “HIV-1 Integrase Inhibitors with Modifications That Affect Their Potencies against Drug Resistant Integrase Mutants” (ACS Infectious Diseases, 2021):
# Legend:
# Assay type in all cases: cell-based
# [1] = test system: WT HIV-1; assay: single-round infectivity assay, WT HIV-1 IN vector; details: Human immunodeficiency virus 1, read-out: EC50 values WT, vector carrying WT HIV-1 IN, single round infection, n = 4; new compounds
# Method: (§1) Figure 2 Antiviral activities of the new compounds against RAL-resistant mutants. The EC50 values were determined using a vector that carries WT HIV-1 IN and the RAL-resistant mutants in a single round infection assay. […] Error bars represent the standard deviations of independent experiments, n = 4, performed in triplicate. The graph has a maximum value of 550 nM.
# (§2) WT and mutant HIV-1 viral vectors were used in single-round infectivity assays to determine the antiviral potencies (EC50 values) of the compounds and the effects of the mutants on the EC50 values as previously described.[30],[54] Single round infectivity measurements were determined as done previously.[38]
# (§3) The vector pNLNgoMIVR-ΔENV.LUC has been described previously.[26] To produce the new IN mutants used in this study, the IN open reading frame was removed from pNLNgoMIVR-ΔENV.LUC by digestion with KpnI and SalI, and the resulting fragment was inserted between the KpnI and SalI sites of pBluescript KS+. Using that construct as the wild-type template, we prepared the following HIV-1 IN mutants using the QuikChange II XL site directed mutagenesis kit (Agilent Technologies, Santa Clara, CA) protocol: N117A, N117H, P142A, P142H, P142S, Y143C, Y143H, S230R, R231G, and R231K. The following sense oligonucleotides were used with matching cognate antisense oligonucleotides (not shown) (Integrated DNA Technologies, Coralville, IA) in the mutagenesis: N117A, 5′-[…]-3′; N117H, 5′-[…]-3′; P142A, 5′-[…]-3′; P142H, 5′-[…]-3′; P142S, 5′-[…]-3′; Y143C, 5′- […]-3′; Y143H, 5′-[…]-3′; S230R, 5′- […]-3′; R231G, 5′-[…]-3′; R231K, 5′-[…]-3′.
# [2] = test system: HIV-1 IN mutant Y143R; assay: single-round infectivity assay, Y143R IN mutant
# Method: as §1, §2, §3
# [3] = test system: HIV-1 IN mutant N155H; assay: single-round infectivity assay, N155H IN mutant
# Method: as §1, §2, §3
# [4] = test system: HIV-1 IN double mutant G140S/Q148H; assay: single-round infectivity assay, G140S/Q148H IN double mutant
# Method: as §1, §2, §3
# [5] = test system: HIV-1 IN mutant N117A; assay: single-round infectivity assay, N117A IN mutant
# Method: (§4) The EC50 values were determined using a vector that carries the IN mutant in a single round infection assay. […] Error bars represent the standard deviations of independent experiments, n = 4, performed in triplicate.
# as §2, §3
# [6] = test system: HIV-1 IN mutant N117H; assay: single-round infectivity assay, N117H IN mutant
# Method: as §4, §2, §3
# [7] = test system: HIV-1 IN mutant G118R; assay: single-round infectivity assay, G118R IN mutant
# Method: as §4, §2, §3
# [8] = test system: HIV-1 IN mutant S119R; assay: single-round infectivity assay, S119R IN mutant
# Method: as §4, §2, §3
# [9] = test system: HIV-1 IN mutant Y143C; assay: single-round infectivity assay, Y143C IN mutant
# Method: as §4, with “Figure 4 Mutations in the β5-α3 loop affect the antiviral potencies of the new compounds. The” for “The”
# as §2, §3
# [10] = test system: HIV-1 IN mutant Y143H; assay: single-round infectivity assay, Y143H IN mutant
# Method: as §4, with “Figure 4 Mutations in the β5-α3 loop affect the antiviral potencies of the new compounds. The” for “The”
# as §2, §3
# [11] = test system: HIV-1 IN mutant P142A; assay: single-round infectivity assay, P142A IN mutant
# Method: as §4, with “Figure 4 Mutations in the β5-α3 loop affect the antiviral potencies of the new compounds. The” for “The”
# as §2, §3
# [12] = test system: HIV-1 IN mutant P142H; assay: single-round infectivity assay, P142H IN mutant
# Method: as §4
# Single round infectivity measurements were determined as done previously.[38]
# as §3
# [13] = test system: HIV-1 IN mutant P142S; assay: single-round infectivity assay, P142S IN mutant
# Method: as §4, with “Figure 4 Mutations in the β5-α3 loop affect the antiviral potencies of the new compounds. The” for “The”
# as §2, §3
# [14] = test system: HIV-1 IN mutant S230R; assay: single-round infectivity assay, S230R IN mutant
# Method: as §4, with “Figure 5 Antiviral potencies of the new compounds against IN with mutations in the […]. The” for “The”
# as §2, §3
# [15] = test system: HIV-1 IN mutant R231G; assay: single-round infectivity assay, R231G IN mutant
# Method: as §4, with “Figure 5 Antiviral potencies of the new compounds against IN with mutations in the […]. The” for “The”
# as §2, §3
# [16] = test system: HIV-1 IN mutant R231K; assay: single-round infectivity assay, R231K IN mutant
# Method: as §4, with “Figure 5 Antiviral potencies of the new compounds against IN with mutations in the […]. The” for “The”
# as §2, §3
# [17] = fold change in EC50, IN mutant versus WT HIV-1
compound,measurement,setting,value
"O=C(NCc1ccc(F)cc1F)c1c(O)c2c(CO)ccnc2n(O)c1=O [5j, N-(2,4-Difluorobenzyl)-1,4-dihydroxy-5-(hydroxymethyl)-2-oxo-1,2-dihydro-1,8-naphthyridine-3-carboxamide]",EC50,[1],7.3 ± 0.6 nM
same,ratio of the EC50s (our compound relative to DTG) against Y143R,[2]; EC50 compound / EC50 DTG,0.6
same,EC50,"[2]; Human immunodeficiency virus 1, read-out: EC50 values Y143R",2.6 ± 0.4 nM
same,FC Y143R,[2]; [17],0.4
same,ratio of the EC50s (our compound relative to DTG) against N155H,[3]; EC50 compound / EC50 DTG,4.1
same,EC50,"[3]; Human immunodeficiency virus 1, read-out: EC50 values N155H",14.9 ± 3.6 nM
same,FC N155H,[3]; [17],2.0
same,ratio of the EC50s (our compound relative to DTG) against G140S/Q148H,[4]; EC50 compound / EC50 DTG,2.5
same,EC50,"[4]; Human immunodeficiency virus 1, read-out: EC50 values G140S/Q148H",14.7 ± 1.1 nM
same,FC G140S/Q148H,[4]; [17],2.0
same,ratio of the EC50s (our compound relative to DTG) against N117A,[5]; EC50 compound / EC50 DTG,26.8
same,EC50,"[5]; Human immunodeficiency virus 1, read-out: EC50 values N117A",13.4 ± 1.5 nM
same,FC N117A,[5]; [17],1.8
same,ratio of the EC50s (our compound relative to DTG) against N117H,[6]; EC50 compound / EC50 DTG,1.4
same,EC50,"[6]; Human immunodeficiency virus 1, read-out: EC50 values N117H",3.4 ± 0.4 nM
same,FC N117H,[6]; [17],0.5
same,ratio of the EC50s (our compound relative to DTG) against G118R,[7]; EC50 compound / EC50 DTG,2.3
same,EC50,"[7]; Human immunodeficiency virus 1, read-out: EC50 values G118R",30 ± 5 nM
same,ratio of the EC50s (our compound relative to DTG) against S119R,[8]; EC50 compound / EC50 DTG,3.0
same,EC50,"[8]; Human immunodeficiency virus 1, read-out: EC50 values S119R",7 ± 0.2 nM
same,FC S119R,[8]; [17],1.0
same,ratio of the EC50s (our compound relative to DTG) against Y143C,[9]; EC50 compound / EC50 DTG,1.7
same,EC50,"[9]; Human immunodeficiency virus 1, read-out: EC50 values Y143C, single round infection, n = 4",2.4 ± 0.1 nM
same,FC Y143C,[9]; [17],0.3
same,ratio of the EC50s (our compound relative to DTG) against Y143H,[10]; EC50 compound / EC50 DTG,1.2
same,EC50,"[10]; Human immunodeficiency virus 1, read-out: EC50 values Y143H, single round infection, n = 4",2.6 ± 0.2 nM
same,FC Y143H,[10]; [17],0.4
same,ratio of the EC50s (our compound relative to DTG) against P142A,[11]; EC50 compound / EC50 DTG,1.9
same,EC50,"[11]; Human immunodeficiency virus 1, read-out: EC50 values P142A",4.7 ± 0.1 nM
same,ratio of the EC50s (our compound relative to DTG) against P142H,[12]; EC50 compound / EC50 DTG,1.3
same,EC50,"[12]; Human immunodeficiency virus 1, read-out: EC50 values P142H",3.5 ± 0.1 nM
same,ratio of the EC50s (our compound relative to DTG) against P142S,[13]; EC50 compound / EC50 DTG,1.6
same,EC50,"[13]; Human immunodeficiency virus 1, read-out: EC50 values P142S",3.5 ± 0.5 nM
same,ratio of the EC50s (our compound relative to DTG) against S230R,[14]; EC50 compound / EC50 DTG,1.7
same,EC50,"[14]; Human immunodeficiency virus 1, read-out: EC50 values S230R",7.7 ± 1 nM
same,FC S230R,[14]; [17],1.1
same,ratio of the EC50s (our compound relative to DTG) against R231G,[15]; EC50 compound / EC50 DTG,1.8
same,EC50,"[15]; Human immunodeficiency virus 1, read-out: EC50 values R231G",2.5 ± 0.6 nM
same,FC R231G,[15]; [17],0.3
same,ratio of the EC50s (our compound relative to DTG) against R231K,[16]; EC50 compound / EC50 DTG,1.4
same,EC50,"[16]; Human immunodeficiency virus 1, read-out: EC50 values R231K, single round infection, n = 4",5.9 ± 0.2 nM
same,FC R231K,[16]; [17],0.8
